Consider four molecules from paper PMC7318034, “Safety, Pharmacokinetics, and Drug-Drug Interaction Potential of Intravenous Durlobactam, a β-Lactamase Inhibitor, in Healthy Subjects” (Antimicrobial Agents and Chemotherapy, 2020).

Data set [1] can be described thus: Part C single-dose drug-drug interaction plasma PK in healthy subjects. To be noted: for half-life / AUC(0-t) / clearance / Cmax / Vd: human, in vivo; for clearance: CL; for Vd: Vss. As to the method: (§1) The blank control matrix was made up of human plasma (BioreclamationIVT) diluted 1:1 with SigmaFast (reconstituted protease inhibitor cocktail tablet [product S8820; Sigma-Aldrich, St. Louis, MO] in 10 ml of water) for preparation of calibration standards and QC samples. […] A 100-μl aliquot of the supernatant was transferred to 96-well plates. Samples were diluted further with 400 μl of water, and 5 μl of sample was injected into the LC-MS/MS system for analysis. […] The LLOQ for all analytes was 5 ng/ml.
(§2) AUC was calculated using the log-linear trapezoidal rule.
(§3) Pharmacokinetic parameters were summarized at each assessment time point using the mean ± standard deviation (SD), the percent coefficient of variation (CV), median, minimum, and maximum. Single-ascending-dose study data were assessed for dose proportionality using Cmax and AUC, and accumulation ratios was determined using repeat-dose cohorts. […] Noncompartmental analysis of PK parameters was performed using Phoenix WinNonlin (v6.4) software to determine PK parameters.

The nature of data set [2]: Part D multiple-dose coadministration of DUR, SUL and IMI-CIL, plasma PK in healthy subjects. To be noted: for AUC / Cmax / Tmax: human, in vivo; for AUC: AUC0–tau. As to the method:
as §1, §2, §3

The nature of data set [3]: clinical. The conditions noted are these: human, 0.5 g.
Data set [4] is described as follows: Urine PK (urinary excretion, renal clearance) in healthy subjects. To be noted: for CL renal: human, CLr.
The conditions of data set [5]: cited from earlier work.
Where [6] appears, read: AUC0–24, part C cohort 14, DUR 1 g + IMI-CIL 0.5 g + SUL 1 g, day 8.
Where [7] appears, read: part C cohort 14, IMI-CIL 0.5 g alone, day 3.
Where [8] appears, read: part C cohort 14, DUR 1 g + IMI-CIL 0.5 g + SUL 1 g, day 8.
Setting [9] is: part C cohort 14, DUR 1 g + IMI-CIL 0.5 g, day 5.
The mark [10] stands for this setting: DUR 1 g + SUL 1 g + IMI-CIL 0.5 g q6h, day 11.
The mark [11] stands for this setting: DUR 1 g + SUL 1 g + IMI-CIL 0.5 g q6h, day 1.
The mark [12] stands for this setting: DUR 1 g + SUL 1 g + IMI-CIL 0.5 g q6h, day 1, median, n=10.
[13] abbreviates: DUR 1 g + SUL 1 g + IMI-CIL 0.5 g q6h, day 11, median.
Where [14] appears, read: part C cohort 14, Day 8, placebo subjects (no DUR), n=2.
Setting [15] is: part D cohort 15, Day 1, DUR + SUL + IMI-CIL q6h, mean, n=10.
[16] abbreviates: part D cohort 15, Day 11, DUR + SUL + IMI-CIL q6h, mean, n=10.
The mark [17] stands for this setting: 1 g, part C cohort 13, SUL 1 g alone, day 1.
[18] abbreviates: part C cohort 13, DUR 1 g + SUL 1 g coadministered, day 5.
Setting [19] is: part C cohort 14, SUL 1 g + IMI-CIL 0.5 g, day 8.

On to `CC1(C)C[C@@H]1C(=O)N/C(=C\CCCCSC[C@H](N)C(=O)O)C(=O)O` [CIL, cilastatin], for which, in data set [1], the half-life – broadly, the time in which the quantity being followed falls by half – is 1.2 ± 0.2 h. In addition, the AUC(0-t) (in general, the area under the concentration-time curve up to a stated or last time point) in data set [1] (setting [6]) came to 46900 ± 6600 ng·h/mL; in data set [1] (AUC0–24, part C cohort 14, DUR 1 g + IMI-CIL 0.5 g, day 5), 47100 ± 7200 ng·h/mL; in data set [1] (AUC0–24, part C cohort 14, IMI-CIL 0.5 g alone, day 3), 49600 ± 9800 ng·h/mL. Further, in data set [1] (setting [7]), the clearance (commonly the rate of elimination divided by the concentration) is 173 mL/min. For the same molecule, the Cmax (commonly the highest concentration seen after dosing) was determined as 40700 ± 4900 ng/mL in data set [1] (setting [8]); 44000 ± 6100 ng/mL in data set [1] (setting [9]); 46000 ± 8300 ng/mL in data set [1] (setting [7]); 38600 ± 6000 ng/mL in data set [2] (setting [11]); 38000 ± 5600 ng/mL in data set [2] (setting [10]). Moreover, the results for the distribution volume (Vd) in data set [1] (setting [8]), in data set [1] (setting [9]) and in data set [1] (setting [7]) were 10.4 ± 0.9 L, 9.9 ± 1.2 L and 9.6 ± 1.4 L, respectively. For the same molecule, the CL is 10.9 ± 1.6 L/h in data set [1] (setting [8]) and 10.8 ± 1.8 L/h in data set [1] (setting [9]). For the same molecule, the t1/2 in data set [1] (setting [8]) and in data set [1] (setting [9]) was 1.2 ± 0.2 h in each case. Further, the Accum. index in data set [2] (setting [10]) was found to be 1.1 ± 0.04. Also, the accumulation index entry in data set [2] (day 11 vs day 1) is “approximately 1”. Further, the AUC (in general, the area under the concentration-time curve, a measure of exposure) in data set [2] (setting [11]) came to 45600 ± 7000 ng·h/mL; in data set [2] (setting [10]), 39400 ± 7200 ng·h/mL. The Tmax in data set [2] (setting [12]) and in data set [2] (setting [13]) was 0.5 h in each case. Besides, the CL renal in data set [3] (in vivo) is 133 mL/min; in data set [4] (in vivo, part C cohort 14, Day 8, placebo subjects (no DUR), n=2), 206 mL/min; in data set [4] (in vivo, part D cohort 15, Day 11, DUR + SUL + IMI-CIL q6h, mean), 183 mL/min. The Ae in data set [4] (setting [14]) is on record as 601.795 (46.820) mg; in data set [4] (setting [15]) it was 3535.03 mg; in data set [4] (setting [16]), 424.168 mg. Also, the Fe is 120.359 (9.364) % in data set [4] (setting [14]), 88.376% in data set [4] (setting [15]) and 84.834% in data set [4] (setting [16]).
The molecule `C[C@@H](O)[C@H]1C(=O)N2C(C(=O)O)=C(SCCN=CN)C[C@H]12` [IMI, imipenem, reference compound] displayed an area under the curve AUC(0-t) in data set [1] (AUC0–24) of 43700 ± 9200 ng·h/mL. In data set [1], this molecule gave a clearance of 197 mL/min. In addition, the maximum concentration (Cmax) in data set [1] worked out at 34400 ± 5300 ng/mL. This molecule showed a half-life in data set [1] (t1/2) of 1.2 ± 0.1 h. In addition, the CL renal was 102 mL/min in data set [3] (urine, intravenous); 70.4 mL/min in data set [4] (urine, intravenous, part C cohort 14, Day 8, placebo subjects (no DUR), n=2); 136 mL/min in data set [4] (urine, intravenous, part D cohort 15, Day 11, DUR + SUL + IMI-CIL q6h, mean). For the same molecule, the Ae is 183.832 (56.842) mg in data set [4] (setting [14]), 1407.051 mg in data set [4] (setting [15]) and 271.71 mg in data set [4] (setting [16]). For the same molecule, the Fe is on record as 36.766 (11.368) % in data set [4] (setting [14]), 35.1762% in data set [4] (setting [15]) and 54.343% in data set [4] (setting [16]).
`CC1(C)[C@H](C(=O)O)N2C(=O)C[C@H]2S1(=O)=O` [SUL, Sulbactam]: in data set [1] (1 g), the half-life is 1.3 ± 0.1 h. In addition, the area under the curve AUC(0-t) came to 68500 ± 4700 ng·h/mL in data set [1] (1 g, AUC0–24, part C cohort 13, SUL 1 g alone, day 1); 73000 ± 6200 ng·h/mL in data set [1] (AUC0–24, part C cohort 13, DUR 1 g + SUL 1 g coadministered, day 5); 80600 ± 21200 ng·h/mL in data set [1] (setting [6]); 81700 ± 5200 ng·h/mL in data set [1] (AUC0–24, part C cohort 14, SUL 1 g + IMI-CIL 0.5 g, day 8). Moreover, the clearance was 243 mL/min in data set [1] (setting [17]), 230 mL/min in data set [1] (setting [18]), 217 mL/min in data set [1] (setting [8]) and 205 mL/min in data set [1] (setting [19]). Moreover, the maximum concentration (Cmax) in data set [1] (setting [17]) is 20700 ± 700 ng/mL; in data set [1] (setting [18]), 22000 ± 2700 ng/mL; in data set [1] (setting [19]), 24000 ± 2000 ng/mL; in data set [2] (setting [11]), 23900 ± 1300 ng/mL; in data set [2] (setting [10]), 22400 ± 6100 ng/mL. The Vd – broadly, a proportionality between amount in the body and measured concentration, not a real space – in data set [1] (setting [17]) was determined as 18 ± 1.6 L; in data set [1] (setting [18]) it was 18.1 ± 1.7 L; in data set [1] (setting [8]), 15.2 ± 2.7 L; in data set [1] (setting [19]), 15.4 ± 1.5 L. Further, the t1/2 in data set [1] (setting [18]) and in data set [1] (setting [19]) was 1.3 ± 0.1 h in each case. In addition, the AUC in data set [2] (setting [11]) was 76700 ± 5800 ng·h/mL; in data set [2] (setting [10]), 67900 ± 7600 ng·h/mL. Besides, the Tmax – broadly, the time at which the peak concentration occurs – in data set [2] (setting [12]) turned out to be 2.7 h; in data set [2] (setting [13]), 2.6 h.
Turning to colistin, the “nephrotoxicity, patients affected” value in data set [5] (patients treated with colistin) was at least 40%. For the same molecule, the mortality rate entry in data set [5] (patients with hospital-acquired or ventilator-associated pneumonia treated with colistin-based antibiotic regimens) was “approximately 40%”.
